According to patent publication US9363996B2, “Compositions and method for blocking ethylene response in field crops using 3-(cy-clopropyl-l-enyl)-propanoic salt” (Yissum Research Development Company of the Hebrew …, priority 2009, dated 2016):

Columns and labels:
[1] = system: young cotton seedlings; assay: Ethylene-induced chlorophyll degradation in young cotton seedlings; format: in vivo, cotton (Gossyium hirsutum barbadense L.); conditions: for increase of chlorophyll content compared with the untreated control: ethylene 10 μL L^−1
Method: (1) Abscission-This is a very sensitive model system for studying the effects of plant hormones. Ethylene induces the process of abscission, while auxin delays it. In the laboratory the experimental system is based on plant organ explants, which include the abscission zone. Abscission is induced by exposure to ethylene and at the termination of the experiment the number of abscised organs, usually either leaf blades or petioles are counted and the fraction of abscission is calculated. In the case of fruit, the decrease in fruit retention force is analyzed. […] The plants or explants are then further exposed for 24 h to ethylene gas (5 to 20 μL L^-1). The plants or explants are then ventilated and incubated for the required time under controlled conditions. At the end of the experiment the percentage of abscission is determined. […] Plant material (whole plants, excised leaves or leaf discs) are pretreated. […] The plants or explants are then ventilated and incubated for the required time under controlled conditions. At the end of the experiment a dimethylsulfoxide (DMSO) extract of the plant tissue is prepared, and the chlorophyll content of the extract is determined by spectrophotometric analysis. The chlorophyll content is reported either on a fresh, dry weight basis, or on a surface area basis. (3) Epinasty-This is also one of the classical methods for studying ethylene effects in plants. The extent of ethylene-induced epinasty of leaves is determined by measuring the change of the angle between the petiole and the stem shoot or blade. After exposure of the intact plant to ethylene, the upright grown leaves bend downward. […] The plants are then ventilated and incubated for the required time under controlled conditions. The epinastic effect is expressed by measuring the degree values of the downward curvature between the blade and petiole (cotton, FIGS. 1-3) or between the blade and the stem (wheat, FIGS. 31 and 32). […] In this project the intact plants were grown in the greenhouse up to the spike […] stage I and II. […] Young Cotton Seedlings […] The content of chlorophyll in the leaf blades of the treated plants remained the same as in the untreated control (FIGS. 5 and 6).

[2] = system: Winter wheat; assay: Field experiment in wheat: seed yield and seed weight; format: in vivo, Winter wheat (Ttriticum aestivum, var. Galil); conditions: for yield increase over the control, hand-separated: g/100 spikes; for seed yield increase compared to the untreated control, mechanically thresh separated: g/plot
Source text: Plant material and experimental design—Winter wheat (Ttriticum aestivum, var. Galil) was sown in December 2008 in a medium-heavy soil in the farm of the Volcani Center, Agricultural Research Organization, Bet-Dagan, Israel. Winter rainfall between October and March was 515 mm. The crop was raised without irrigation. The plants were sprayed twice with insecticide in November with ‘Tunex’ (one L/acre) and in December with ‘Oror Turbo’ (200 g/acre). The experiment started in mid-March, 2009. Six blocks were randomly selected, and each block was further randomly divided into four treatment plots of two square meters each (FIG. 67A—right and left). Two-meter-wide strips of untreated plants served as border lines between the blocks (FIG. 67A—center). The following treatments were applied: 1. control; 2. spraying WS-CPD at the ‘Milky’ stage I (30.3.09); 3. spraying WS-CPD at the ‘Milky’ stage II (17.4.09); 4. two successive WS-CPD sprays as above (30.3.09 and 17.4.09).
Treatments—The treatment solution of WS-CPD contained 120 μg mL^−1 of WS-CPD in 10 mM K-phosphate buffer (pH 7.6) and 0.1% of ‘Kinetic’ surfactant. Spraying (about 0.8 L/two square meters) was applied with a portable sprayer (ACL 7-L, Great Brittan). The controls were sprayed with the treatment solution without WS-CPD. The spraying was aimed to cover the upper part of the plants, from the second leaf below the ‘Flag leaf’ and up, covering the whole spike.
Determination of seed development—In order to follow the dynamics of seed development from ‘Milky’ stage I to seed maturity, groups of 200 spikes were sampled from the border strips. Samples were taken on 30.3.09 (‘Milky’ stage I), 17.4.09 (‘Milky’ stage II), and 19.5.09 (seed maturity). The spikes were brought to the laboratory and dried in an oven (60° C.) until complete dryness. After drying, the seeds were separated from each spike, counted, and their weight was recorded to determine the average seed weight for each spike. The number of spikes with the same average seed weight of each treatment was expressed as percent of total spike number.
Harvesting—At the termination of the experiment (19.5.09), when the seeds reached full maturity, the spikes from all six blocks were harvested, counted, and placed on tables in the greenhouse for 12 days to reach complete dryness (FIG. 67B).
Hand seed separation—One hundred dried spikes were randomly sampled of each plot (n=6) after harvesting. The seeds of each spike were separated (FIGS. 67C and D) and counted and their weight was determined. The seed weight of each spike was divided by the number of seeds per spike to determine the average seed weight of each spike. The number of spikes of each treatment with the same average seed weight was expressed as percent of total spike number.
Mechanical thresh seed separation—The remaining dry spikes of each experimental plot were counted and mechanically thresh separated (Kurt Pelz Co., Germany) from their glumes and chafes, and their dry weight was recorded (g/plot). For comparison of the yield weight of the controls between mechanical thresh and hand separation, 200 seeds from each method were randomly sampled.
Effect of WS-CPD on Yield—This effect of WS-CPD was studied by two ways: a) calculating the yield of each experimental plot (g/plot) and; b) calculating the yield dry weight of 100 spikes randomly selected in each experimental plot (g/100 spikes).

[3] = WS-CPD 120 μg mL^−1 spray at 'Milky' stage I
[4] = WS-CPD 120 μg mL^−1 spray at 'Milky' stage II

Q: `O=C([O-])CCC1=CC1.[Na+]` [WS-CPD, 3-cyclopropyl-1-enyl-propanoic sodium salt] was tested. Which ethylene-induced chlorophyll degradation ([1]; WS-CPD 10 μg mL^−1 pretreatment, ethylene 10 μL L^−1 24 h) did it give?
A: Its ethylene-induced chlorophyll degradation is “completely antagonized”.

Q: What about the “increase of chlorophyll content compared with the untreated control” value ([1]; WS-CPD 30 μg L^−1 (so in the source)) of the same molecule?
A: The value was 20%.

Q: And the “increase of chlorophyll content compared with the untreated control” value ([1]; WS-CPD 100 μg L^−1 (so in the source))?
A: The value was 28%.

Q: And the ethylene-induced chlorophyll degradation ([1]; higher concentrations of WS-CPD (up to 300 μg mL^−1))?
A: The ethylene-induced chlorophyll degradation was “less effective”.

Q: And the “yield increase over the control, hand-separated” value [2, 3]?
A: The value was “about 15±2.6%”.

Q: And the “seed yield increase compared to the untreated control, mechanically thresh separated” value [2, 3]?
A: The value was “about 5%”.

Q: What about the “yield increase over the control, hand-separated” value [2, 4] of the same molecule?
A: The value was “about 8%”.

Q: And the “seed yield increase compared to the untreated control, mechanically thresh separated” value [2, 4]?
A: Its value is roughly 8%.

Q: What about the “increase of seed weight” value ([2]; one spray at 'Milky' stage I, hand-separated, mg/seed) of the same molecule?
A: The value was “about 15%”.

Q: And the “distribution of seed weight at maturity versus control spikes” value ([2]; sprayed at 'Milky' stage I, II or both)?
A: Its value is “always significantly heavier”.

Q: And the “yield, hand-separated” value ([2]; spraying twice at 'Milky' stages I+II versus one spray at stage I)?
A: Its value is “no advantage”.

Q: What about the “seed yield, mechanically thresh separated” value ([2]; spraying twice at 'Milky' stages I+II versus spraying once) of the same molecule?
A: The value was “no advantage”.
